In article PMC9835529, “Investigation of Novel Quinoline–Thiazole Derivatives as Antimicrobial Agents: In Vitro and In Silico Approaches” (ACS Omega, 2022):
In brackets after ≈: the same amount, converted by molar mass.

Legend:
C. glabrata ATCC 90030 = assay: Anticandidal broth microdilution (EUCAST EDef 7.1), MIC90; format: cell-based, Candida glabrata; settings: Nakaseomyces glabratus, ATCC90030, C. glabrata ATCC 90030
Description: (§1) E. coli (ATCC 35218), E. coli (ATCC 25922), S. aureus (ATCC 6538), methicillin-resistant S. aureus (MRSA) (clinical isolate), S. typhimurium (ATCC 13311), and K. pneumoniae (NCTC 9633) cells for antibacterial effect, and C. albicans (ATCC 24433), C. glabrata (ATCC 90030), C. krusei (ATCC 6258), and C. parapsilosis (ATCC 22019) for the antifungal effect of the final compounds were used to determine the MIC90 values. The broth microdilution procedure specified in the M07-A9 document of the Clinical and Laboratory Standards Institute (CLSI) was used for antibacterial study,[55] and the EDef 7.1 document published by EUCAST was used for the antifungal study.[56] For both activity studies, the detailed procedures were explained in previous studies.[57],[58]

[1] = tested on: Klebsiella pneumoniae NCTC 9633; assay: Antibacterial broth microdilution (CLSI M07-A9), MIC90; format: cell-based; settings: NCTC9633, K. pneumoniae NCTC 9633
Description: (§2) The broth microdilution procedure specified in the M07-A9 document of the Clinical and Laboratory Standards Institute (CLSI) was used for antibacterial study,[55] and the EDef 7.1 document published by EUCAST was used for the antifungal study.[56] For both activity studies, the detailed procedures were explained in previous studies.[57],[58]

E. coli ATCC 25922 = assay: as above; format: cell-based
Description: as §2

[2] = tested on: Staphylococcus aureus ATCC 6538; assay: as above; format: cell-based; settings: Staphylococcus aureus, ATCC6538; S. aureus ATCC 6538; read-out: MIC90
Description: as §2

[3] = tested on: methicillin-resistant S. aureus (MRSA) (clinical isolate); assay: as above; format: cell-based
Description: as §2

[4] = tested on: Salmonella typhimurium ATCC 13311; assay: as above; format: cell-based; settings: Salmonella enterica; S. typhimurium ATCC 13311
Description: as §2

[5] = tested on: Escherichia coli ATCC 35218; assay: as above; format: cell-based; settings: E. coli ATCC 35218
Description: as §2

Candida krusei ATCC 6258 = assay: Anticandidal broth microdilution (EUCAST EDef 7.1), MIC90; format: cell-based; settings: Pichia kudriavzevii, ATCC6258, C. krusei ATCC 6258; read-out: MIC90
Description: as §1

[6] = tested on: Candida albicans ATCC 24433; assay: as above; format: cell-based; settings: Candida albicans, ATCC24433, C. albicans ATCC 24433; read-out: MIC90
Description: as §1

[7] = tested on: Candida parapsilosis ATCC 22019; assay: as above; format: cell-based; settings: Lodderomyces parapsilosis, ATCC22019, C. parapsilosis ATCC 22019; read-out: MIC90
Description: as §1

E. coli DNA gyrase = biological target: T1, E. coli DNA gyrase (Escherichia coli, UniProt P0AES4+P0AES6); assay: DNA-gyrase supercoiling inhibition by electrophoresis (TopoGen kit); format: biochemical; settings: relaxed pHOT1 DNA
T1 construct: purchased TopoGen SKU TG2000G-3
Description: DNA gyrase obtained from E. coli was used to detect the inhibition of the superhelix activity of DNA gyrase. The method was performed according to the kit protocol described by the supplier (SKU TG2000G-3, TopoGen). The detailed procedures were explained in the previous study.[62]

[8] = tested on: Lanosterol 14α-demethylase (LMD, CYP51A1); assay: LDM (CYP51A1) inhibition by LC-MS-MS quantification of ergosterol level; format: cell-based; settings: C. krusei
Description: The activity of the target compounds was tested against Candida strains via the determination of ergosterol production.
Ergosterol level was determined using the extract of total sterols from C. albicans (and its other species) following the method described by Breivik and Owades.[63] Quantification of the ergosterol level in this extract was carried out by the recently described method.[58],[64]−[66] According to these described studies, in the current work, compounds 4b, 4e, 4f, and 4h–m were undertaken to investigate their action mechanism. Thus, the LC-MS-MS-based method that quantifies the ergosterol level was applied. […]. Ergosterol quantity in negative control samples was regarded as 100%. All concentrations were analyzed in quadruplicate, and the results were expressed as mean ± standard deviation (SD).

NIH/3T3 cells = assay: Cytotoxicity on NIH/3T3 healthy cell line; format: cell-based; settings: Mus musculus, NIH3T3, 24 h incubation
Description: NIH/3T3 cells were incubated in Dulbecco’s modified Eagle’s medium (DMEM) (Sigma-Aldrich, St. Louis, MO), added with fetal calf serum, penicillin (100 IU/mL), streptomycin ([…]), and 7.5% NaHCO3 at 37 °C in a humidified atmosphere of 95% air and 5% CO2. NIH/3T3 cells were seeded into the 96-well plates at a density of 1 × 10^4 cells. After 24 h of incubating period, the culture media were removed, and test compounds were added. After 24 h of incubation period, colorimetric measurements were performed by a microplate reader (Biotek) at 540 nm. Inhibition % at all concentrations was determined using the formula below, and the IC50 values were calculated from a dose–response curve obtained by plotting the percentage inhibition versus the log concentration with the use of Microsoft Excel 2013.

T1 sequence (P0AES4 whole entry, one chain of several): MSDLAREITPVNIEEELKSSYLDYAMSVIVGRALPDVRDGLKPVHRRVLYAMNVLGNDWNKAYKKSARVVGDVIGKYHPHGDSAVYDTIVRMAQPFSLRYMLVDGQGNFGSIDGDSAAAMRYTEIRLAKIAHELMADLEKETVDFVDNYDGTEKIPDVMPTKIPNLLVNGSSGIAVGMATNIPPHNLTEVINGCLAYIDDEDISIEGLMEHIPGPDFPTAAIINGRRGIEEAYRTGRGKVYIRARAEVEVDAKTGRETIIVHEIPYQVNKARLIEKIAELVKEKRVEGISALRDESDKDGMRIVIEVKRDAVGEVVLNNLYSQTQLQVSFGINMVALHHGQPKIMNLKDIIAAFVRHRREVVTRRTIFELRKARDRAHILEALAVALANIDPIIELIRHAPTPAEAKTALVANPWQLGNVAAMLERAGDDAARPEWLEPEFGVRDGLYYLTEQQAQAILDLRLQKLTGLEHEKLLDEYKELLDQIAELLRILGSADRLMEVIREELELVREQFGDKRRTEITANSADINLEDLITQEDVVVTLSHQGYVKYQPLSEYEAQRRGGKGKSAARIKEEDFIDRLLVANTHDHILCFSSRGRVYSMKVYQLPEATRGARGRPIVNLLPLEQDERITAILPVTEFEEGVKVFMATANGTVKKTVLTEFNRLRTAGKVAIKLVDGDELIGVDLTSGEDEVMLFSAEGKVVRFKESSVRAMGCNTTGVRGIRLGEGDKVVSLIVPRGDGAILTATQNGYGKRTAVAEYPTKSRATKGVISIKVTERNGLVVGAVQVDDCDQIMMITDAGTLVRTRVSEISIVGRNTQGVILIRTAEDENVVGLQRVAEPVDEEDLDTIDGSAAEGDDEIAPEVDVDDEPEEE

COc1ccc2nc(Cl)c(C=NNc3nc(-c4cccc5ccccc45)cs3)cc2c1 [4m]
MIC90 (C. glabrata ATCC 90030): 1.95 µg/mL (≈ 4.38 µM) | MIC90 [1]: > 1000 µg/mL | times more effective than chloramphenicol (MIC90) (E. coli ATCC 25922): twice | MIC90 (E. coli ATCC 25922; Escherichia coli, ATCC25922): 7.81 µg/mL (≈ 17.6 µM) | MIC90 [2]: 7.81 µg/mL (≈ 17.6 µM) | times more effective than the standard drug chloramphenicol (MIC90) [3]: 4 | MIC90 ([3]; Staphylococcus aureus): 7.81 µg/mL (≈ 17.6 µM) | MIC90 [4]: > 1000 µg/mL | times more effective than chloramphenicol (MIC90) [5]: four times | MIC90 ([5]; Escherichia coli, ATCC35218): 7.81 µg/mL (≈ 17.6 µM) | MIC90 (Candida krusei ATCC 6258): ≤ 0.06 µg/mL | MIC90 [6]: 1.95 µg/mL (≈ 4.38 µM) | MIC90 [7]: 0.24 µg/mL (≈ 0.539 µM) | DNA-gyrase inhibition (electrophoresis image) (E. coli DNA gyrase): no peak belonging to the supercoiled DNA | effect on ergosterol production / LMD enzyme inhibition (in words) [8]: showed their anticandidal activity via LMD enzyme inhibition | CYP51A1 Inhibition% ([8]; 0.06 μg/mL): 48.431 ± 2.036% | CYP51A1 Inhibition% ([8]; 0.24 μg/mL): 61.289 ± 1.461% | CYP51A1 Inhibition% ([8]; 0.98 μg/mL): 70.574 ± 2.648% | IC50 (NIH/3T3 cells): 34.5 ± 0.88 µM | melting point: 174 to 179 °C
